Here are results for three compounds from ChEMBL document CHEMBL1151068, “Rollimembrin, a novel acetogenin inhibitor of mammalian mitochondrial complex I” (Bioorg Med Chem Lett, 1997).

For this assay, the target named is Mitochondrial complex I; NADH oxidoreductase (Bos taurus, UniProt P25708+P52505). Description: Concentration required for the inhibition of NADH oxidase in submitochondrial particles from beef heart. Format: protein-complex assay.
Mitochondrial complex I; NADH oxidoreductase, sequence (P25708 21-464 limits assumed, other chains not shown): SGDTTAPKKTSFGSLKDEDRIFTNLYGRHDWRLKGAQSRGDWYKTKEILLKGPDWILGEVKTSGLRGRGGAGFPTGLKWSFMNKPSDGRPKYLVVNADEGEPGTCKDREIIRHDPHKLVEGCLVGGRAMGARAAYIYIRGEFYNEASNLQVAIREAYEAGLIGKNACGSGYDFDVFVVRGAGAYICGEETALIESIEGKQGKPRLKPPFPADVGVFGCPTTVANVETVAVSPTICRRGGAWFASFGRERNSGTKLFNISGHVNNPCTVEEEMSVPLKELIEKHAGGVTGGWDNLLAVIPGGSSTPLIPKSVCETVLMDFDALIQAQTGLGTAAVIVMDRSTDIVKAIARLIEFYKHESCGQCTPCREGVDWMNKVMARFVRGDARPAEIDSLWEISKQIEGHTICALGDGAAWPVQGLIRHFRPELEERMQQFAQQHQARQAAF

Turning to `CCCCCCCCCC[C@H](O)[C@H]1CC[C@@H]([C@@H]2CC[C@H]([C@H](O)CCCCCCCCCCCCC3=C[C@@H](C)OC3=O)O2)O1`, the midpoint of inhibition, the IC50, lay at 580 pM. This counts as sub-nanomolar. In turn, `CCCCCCCCCC[C@H](O)[C@H]1CC[C@@H]([C@@H]2CC[C@H]([C@H](O)CCCCCCCCCC[C@@H](O)CC3=C[C@@H](C)OC3=O)O2)O1` yielded an IC50 of 580 pM.

The compound `CCCCCCCCCC[C@H](O)[C@H]1CC[C@@H]([C@@H]2CC[C@H]([C@H](O)CCCCCCCC[C@@H](O)CC3=C[C@@H](C)OC3=O)O2)O1` came in with an IC50 of 330 pM.

One may read the IC50 as the concentration that inhibits the measured activity by half. Read a low IC50 as higher potency.
